Consider 3 compounds from the NIST ThermoML archive (doi:10.1021/je050294+).

For this data set the following is noted: 101.33 kPa, Liquid; for speed of sound: Linear variable-path acoustic interferometer.

± gives the expanded uncertainty stated by the source.

In general, mass density refers to mass per unit of volume. In general, speed of sound refers to how fast a sound wave travels through the sample.

Consider `CCCCO` [butan-1-ol], for which the mass density (283.15 K) was 817.48 ± 0.23 kg/m3, the mass density (298.15 K) is recorded as 806.17 ± 0.23 kg/m3 and the mass density (313.15 K) is on record as 794.51 ± 0.24 kg/m3. Moreover, the speed of sound is recorded as 1292.2 ± 1.4 m/s (283.15 K), 1240.7 ± 1.4 m/s (298.15 K) and 1191.4 ± 1.4 m/s (313.15 K).

As to `CCC(C)O` (stereo not drawn) [butan-2-ol], the mass density runs as follows: (283.15 K) 815.11 ± 0.59 kg/m3; (298.15 K) 803 ± 0.6 kg/m3; (313.15 K) 790.06 ± 0.61 kg/m3. In addition, the speed of sound reads like this: (283.15 K) 1266.6 ± 1.7 m/s; (298.15 K) 1212.4 ± 1.7 m/s; (313.15 K) 1158 ± 1.7 m/s.

In the case of `C=C1CCC2CC1C2(C)C` (stereo not drawn) [β-pinene], the mass density (283.15 K) is on record as 878.97 ± 0.55 kg/m3, the mass density (298.15 K) is 866.99 ± 0.55 kg/m3 and the mass density (313.15 K) stood at 854.89 ± 0.56 kg/m3. For the same compound, the speed of sound was found to be 1355.9 ± 1.8 m/s (283.15 K), 1295 ± 1.8 m/s (298.15 K) and 1237.4 ± 1.7 m/s (313.15 K).
